Converted amounts (≈) assume the structure as drawn.
What was measured:
[1] = tested on: guinea pig skin; test: continuous irritative test of guinea pig skin (Draize method); assay type: in vivo, guinea pig (Hartley series); design: key: sum of erythema (0-4) + edema (0-4) scores; max 8
Method: Each left and right two spots (4 spots/head) of applying parts having a frame of 2 cm x 2 cm were provided on the back of a shaved guinea pig (Hartley series, 7 weeks of age, female, N = 10), and each 50 µL of an ethanol/propylene glycol (7 : 3) solution containing 0.5 % of the respective acyl glucosamine derivatives shown in the following Table 1 was applied once a day on the respective frames.
A skin irritative score after application for 3 days straight was evaluated according to the following evaluation criteria (Draize method). The above irritative score was shown by the total points (full marks: 8 points) of erythema and edema.
• Erythema: • Evaluation point • 0: no erythema • 1: very weak erythema • 2: clear erythema • 3: middle to strong erythema • 4: very strong erythema to crust
• Evaluation point • 0: no edema • 1: very slight edema formation • 2: slight edema formation • 3: middle edema formation • 4: strong edema formation

[2] = tested on: wrinkles of the back skin of hairless mice irradiated with UVB; test: wrinkle-improving test in UVB-irradiated hairless mice; assay type: in vivo, hairless mice (hos: HR-1); details: 100 µL of 0.05 % in ethanol/propylene glycol (7 : 3), once a day, five times a week, 8 weeks, after 10 weeks UVB 50 mJ/cm^2; visual score relative to control group
Method: Evaluation point 1: all fine striations along the spine are not observed; a few shallow and coarse wrinkles run perpendicularly to the head-to-tail direction; and the striations appear or disappear with the motion of the mouse. […] The respective bodies were evaluated by an evaluation point of a 0.5 unit to calculate an average point for the respective groups, and the wrinkle-improving rate was calculated for the respective groups according to the following equation (II). Wrinkle-improving rate (%) = [(average value of the control group-average value of a glucosamine derivative-applied group)/(average value of the control group)] × 100 [formula]

[3] = tested on: texture of the back skin of hairless mice irradiated with UVB; test: coarse texture-improving test in UVB-irradiated hairless mice (skin replica); assay type: in vivo, hairless mice (hos: HR-1); details: 100 µL of 0.05 % in ethanol/propylene glycol (7 : 3), five times a week, 4 weeks, after 6 weeks UVB 40 mJ/cm^2; texture intersection points relative to start of test; control 24
Excerpt: The enlarged photographs of the respective replicas were taken through a macro lens (magnification: four times), and the photographs were used to evaluate "coarsening of the texture". The coarseness of the texture was defined by a "number of texture intersection point", wherein a point in which three or more sulci cutis are joined is counted as one intersection point, and the number of the texture intersection points present in a square of 1 cm x 1 cm was counted on the replica photograph. An average point for the respective groups was calculated, and the texture-improving rate was calculated according to the following equation (III). Table 4. Texture-improving rate (%) = [(number of texture intersection point after irradiating with UV or after application)/(number of texture intersection point at the time of starting the test)] × 100 [formula]

[4] = tested on: skin roughness in the inside of a forearm formed with 10 % SDS solution; test: skin roughness-improving test (SDS-induced roughness, stratum corneum conductance); assay type: in vivo, human being; details: hydrophilic ointment with 0.05 %, twice a day, 3 days later; conductance relative to ointment with no tested substance = 100
Method: The skin roughness-improving degree observed 3 days later after application was evaluated using a change in a stratum corneum water content as an index. The stratum corneum water content is measured in terms of a conductance (µS). […] Skin roughness-improving rate (%) = [(conductance observed when applying the ointment blended with the tested substance)/(conductance observed when applying the ointment blended with no tested substance)] × 100 [formula]

[5] = tested on: acnes of acne patients; test: acne-improvement evaluation with an essence for acne; assay type: in vivo; details: essence with 0.05 %, a month later; for Evaluation ×: number of subjects rated × : worsened; for Evaluation Δ: number of subjects rated Δ : no change; for Evaluation ⊚: number of subjects rated ⊚ : notably improved, several times a day; for Evaluation ○: number of subjects rated ○ : improved; for Acne treating effect: subjects rated ○ or ⊚
Method: Prepared was an essence for acne shown in the following composition example in which 0.05 % of various acyl glucosamine derivatives shown in the following Table 6 was blended. An essence which was not blended with an acyl glucosamine derivative was prepared as a control.

[6] = tested on: pigmentation on the backs of color guinea pigs irradiated with UV rays; test: whitening evaluation on UV-induced pigmentation; assay type: in vivo; details: 30 µL of 0.05 % in ethanol/propylene glycol (7 : 3), once a day, five times a week, 4 weeks; visual change in pigmentation
Excerpt: Back body hair of color guinea pigs were shaved by means of a hair clipper and a shaver, and they were irradiated with UV rays once a day, 4 times a week and 8 times in total, whereby 4 parts of pigmentation having an area of about 2.25 cm^2 were formed on the backs of the respective guinea pigs.

[7] = solubility in the ethanol/propylene glycol (7 : 3) solvent (Japanese Pharmacopoeia criteria); assay type: physicochemical; details: organic solvent or mixture, 20°C, within 30 minutes, amount of solvent for 1 g or 1 ml of solute
[8] = Table 1, 50 µL of 0.5 % in ethanol/propylene glycol (7 : 3) once a day, after 3 days straight, total points of erythema and edema, full marks 8, N = 10
[9] = Table 2, by stereoisomer ratio, 0.5 % in ethanol/propylene glycol (7 : 3) once a day, 3 days straight, full marks 8

Compound	Draize score [1, 8]	Draize score [1, 9]	Wrinkle-improving rate [2]	Texture-improving rate [3]	Skin roughness-improving rate [4]	Evaluation × [5]	Evaluation Δ [5]	Evaluation ⊚ [5]	Evaluation ○ [5]	Acne treating effect [5]	Whitening-improving effect [6]	Draize score ([1]; guinea pig, in vivo)	solubility at 0.5 h [7]
CC1=C(/C=C/C(C)=C/C=C/C(C)=C/C(=O)O)C(C)(C)CCC1 [Retinoic acid, reference compound]	8.0												
N-retinoyl-D-glucosamine [N-retinoyl-D-glucosamine (13-cis isomer/trans isomer = 0.5/99.5)]		0.0											
CCCCC/C=C\C/C=C\CCCCCCCC(=O)N[C@H]1C(O)O[C@H](CO)[C@@H](O)[C@@H]1O (stereo partly drawn) [N-linoleoyl-D-glucosamine]	0.3		62%	58%	115%	1	3	0	1	20 percentage	++		
N-POE(10)docosyletheroxycarbonyl-D-glucosamine			82%	88%	138%	0	3	0	2	40 percentage	++	0.1	
CC1=C(/C=C/C(C)=C/C=C/C(C)=C/C(=O)N[C@H]2C(O)O[C@H](CO)[C@@H](O)[C@@H]2O)C(C)(C)CCC1 [N-retinoyl-D-glucosamine (cis isomer/trans isomer = 0/100), N-retinoyl-D-glucosamine]		0.0											1000 to 10000 µg/mL (≈ 2.17 to 21.7 mM)
CC(C)CCCCCCCCCCCCCCC(=O)N[C@H]1C(O)O[C@H](CO)[C@@H](O)[C@@H]1O (stereo partly drawn) [N-isostearoyl-D-glucosamine]	0.1		80%	72%	136%	0	2	0	3	60 percentage	+		
1,3,4,6-tetra-O-acetyl-N-retinoyl-D-glucosamine		0.0											
N-POE(2)hexadecyletheroxycarbonyl-D-glucosamine			72%	89%	139%	0	2	0	3	60 percentage	++	0.1	
CC(=O)OC[C@H]1OC(OC(C)=O)[C@H](NC(=O)/C=C(C)/C=C/C=C(C)/C=C/C2=C(C)CCCC2(C)C)[C@@H](OC(C)=O)[C@@H]1OC(C)=O (single isomer, unassigned) [1,3,4,6-tetra-O-acetyl-N-retinoyl-D-glucosamine]		0.0											1000 to 10000 µg/mL (≈ 1.59 to 15.9 mM)
CCCCCCCCCCCC(=O)N[C@H]1C(O)O[C@H](CO)[C@@H](O)[C@@H]1O (stereo partly drawn) [N-lauroyl-D-glucosamine]	0.1		78%	87%	114%	1	1	0	1	33 percentage	+		
N-retinoyl-D-glucosamine [N-retinoyl-D-glucosamine (9-cis isomer/13-cis isomer/trans i]	0.1	0.1											
N-retinoyl-D-glucosamine [N-retinoyl-D-glucosamine (9-cis isomer/trans isomer = 0.5/99.5)]		0.1											
CCCCCCCC/C=C\CCCCCCCC(=O)N[C@H]1C(O)O[C@H](CO)[C@@H](O)[C@@H]1O (stereo partly drawn) [N-oleoyl-D-glucosamine]	0.2		65%	59%	114%	0	2	0	3	60 percentage	+++		
CCCCCCCCCCCCOC(=O)N[C@H]1C(O)O[C@H](CO)[C@@H](O)[C@@H]1O (stereo partly drawn) [N-dodecyloxycarbonyl-D-glucosamine]					183%						+++		
CC(=O)OC[C@H]1OC(OC(C)=O)[C@H](NC(=O)/C=C(C)/C=C/C=C(C)/C=C/C2=C(C)CCCC2(C)C)[C@@H](OC(C)=O)[C@@H]1OC(C)=O (stereo partly drawn) [1,3,4,6-tetra-O-acetyl-N-retinoyl-D-glucosamine]	0.0												
N-retinoyl-D-glucosamine			89%	75%	127%	0	0	4	2	100 percentage	+++		
N-POE(5)octadecyletheroxycarbonyl-D-glucosamine			73%	92%	128%	0	3	0	2	40 percentage	++	0.2	

— patent EP1941863A2, “External preparation composition” (Lion Corporation, priority 2002, dated 2004)
